Experiment [1] relates to Nb2 lymphoma cells. Nature of the experiment: DNA synthesis measured by thymidine incorporation. Format: cell-based, rat. The text has this: (§1) The mode of action of these piperidinediones is still not proven. […] At the same time, direct binding of such anti-estrogens to DNA appears to be weak. Taken as a whole, these findings support the possibility of a weak interaction of the piperidinediones with both DNA and the estrogen receptor, involving a receptor mediated insertion of the ligand into DNA.
(Uptake of a labelled nucleoside into DNA is a usual measure of proliferation.)

In experiment [2] the test system is DNA. Nature of the experiment: Binding of piperidinedione to DNA.
Description: as §1

For experiment [3], the target named is T1, estrogen receptor (Homo sapiens, UniProt P03372).
T1 sequence (P03372 1-595): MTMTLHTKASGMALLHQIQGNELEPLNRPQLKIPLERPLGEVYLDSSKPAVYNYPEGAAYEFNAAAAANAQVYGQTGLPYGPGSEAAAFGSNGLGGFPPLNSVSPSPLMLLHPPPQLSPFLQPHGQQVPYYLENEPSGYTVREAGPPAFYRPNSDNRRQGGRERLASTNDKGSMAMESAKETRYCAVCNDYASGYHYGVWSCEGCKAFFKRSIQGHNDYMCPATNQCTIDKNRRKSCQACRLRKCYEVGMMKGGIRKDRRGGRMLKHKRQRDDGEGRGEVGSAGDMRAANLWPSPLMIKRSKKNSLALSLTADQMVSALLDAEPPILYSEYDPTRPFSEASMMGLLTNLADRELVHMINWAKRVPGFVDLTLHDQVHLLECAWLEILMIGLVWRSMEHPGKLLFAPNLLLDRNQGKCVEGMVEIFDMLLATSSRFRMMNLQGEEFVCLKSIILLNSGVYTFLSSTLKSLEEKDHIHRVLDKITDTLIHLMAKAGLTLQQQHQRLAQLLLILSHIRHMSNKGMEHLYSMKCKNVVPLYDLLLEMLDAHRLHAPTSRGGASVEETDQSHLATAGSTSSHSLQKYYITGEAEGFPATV
Description: Estrogen receptor binding.

In experiment [4] the test system is MCF-7 (E-3) human breast cancer cells. Nature of the experiment: Inhibition of estrogen stimulated growth of MCF-7 (E-3) cells, 9 day model. The format is cell-based. To be noted: for IC50: MCF-7 (E-3), estrogen stimulated growth, 9 day model; for inhibition of estrogen stimulated cell growth: MCF-7 (E-3) cells.
For experiment [5], the system named is androgenic activity. The conditions noted are these: published findings by Hilgar and Hummel; cited from earlier work.
In experiment [6] the target is T1, estrogen receptor. To be noted: cited from earlier work.
Experiment [7] relates to uterotropic (estrogenic) activity. The conditions noted are these: relative to estradiol, Peters et al.; cited from earlier work.
Experiment [8] has the same test system. Nature of the experiment: Uterotropic (estrogenic) activity in vivo.
Experiment [9] relates to various animal and human tumor cells. Description: Growth inhibition in various animal and human tumor cells. Format: cell-based. The method, then:
(§2) These synthetic derivatives were assessed for biological potency by measuring their growth inhibitory effects on various cell lines using concentrations of […] based on the reported IC50 of 3-phenylacetylamino-2,6 piperidinedione in Nb2 cells.
3-Phenylacetylamino-2,6-piperidinedione (A10) is a modified amino-acid derivative, which was originally isolated from freeze-dried human urine. […] The focus of the following study was to develop more- potent analogs. […] It was observed that placing a hydroxyl group at the para position of the phenyl group of A10 would enable a second hydrogen bond to form thereby substantially enhancing fit as reported by Hendry et al., J. Steroid Biochem. Molec. Biol. 48:495-505 (1994), the teachings of which are hereby incorporated by reference in their entirety.

The subject of experiment [10] is MCF-7 human breast cancer cells. Description: MCF-7 cell growth (cell number) with SGI compounds. Format: cell-based. To be noted: dose 10^−8 M; control 252,197 cells.
The test system of experiment [11] is human leukemia (K652) cells. Nature of the experiment: Growth inhibition in human leukemia K562 cells. Format: cell-based.
The test system of experiment [12] is rat Nb2 lymphoma cells. Description: Inhibition of prolactin stimulated growth of Nb2 lymphoma cells. The format is cell-based.
The subject of experiment [13] is YAK lymphoma cells. Description: Growth inhibition in YAK lymphoma cells. Format: cell-based. To be noted: rank among derivatives. The method, then:
as §2

Entries after “also recorded” stand apart in the source; their conditions may differ. Where a name gives a salt, the structure may show the parent alone. Read-outs that look alike come from different tables or passages of the source.

By IC50 is commonly meant the concentration at which inhibition is half-maximal. Read a low IC50 as higher potency.

On to `O=C1CCC(NC(=O)Cc2ccccc2)C(=O)N1` (stereo not drawn) [3-phenylacetylamino-2,6-piperidinedione], for which the “DNA synthesis measured by thymidine incorporation” value in experiment [1] is “significantly inhibited”. Moreover, the “covalent adducts with DNA” value in experiment [2] is “No covalent adducts”. In addition, the “binding to DNA” value in [2] (in comparison to classical intercalating drugs) was “weak and reversible”. In addition, the “binding for the estrogen receptor” value in experiment [3] is on record as “neither 3-phenylacetylamino-2,6-piperidinedione nor phydroxy-3-phenylacetylamino-2,6-piperidinedione exhibited appreciable binding”. Besides, in experiment [4] (Homo sapiens, MCF7, 216 h), the IC50 was determined as 3 mM. Further, the “inhibition of estrogen stimulated cell growth” value in [4] is listed as “inhibited”.
For the compound `C[C@]12CCC(=O)C[C@@H]1CC[C@@H]1[C@@H]2CC[C@]2(C)[C@@H](O)CC[C@@H]12` [5α-dihydrotestosterone], the androgenic activity entry in experiment [5] is listed as “highly active androgen”.
For `C[C@]12CCC(=O)C[C@@H]1CC[C@@H]1[C@@H]2CC[C@]2(C)[C@@H](O)CC[C@@H]12` [5β-dihydrotestosterone], in experiment [5], the androgenic activity result was “essentially inactive”.
Take `C[C@@H]1Cc2cc(O)ccc2[C@@H]2[C@@H]1[C@@H]1CC[C@H](O)[C@@]1(C)C[C@@H]2O[N+](=O)[O-]` [7α-methylestradiol-11β-nitrate ester, 3,11β, 17β-trihydroxy-7α-methylestra-1,3, 5 (10)-triene 11-nitrate ester]: the “binding to the estrogen receptor relative to estradiol” value in [6] is listed as “less than 6 % of the binding of estradiol”. Further, in experiment [7], the uterotropic activity entry is recorded as “considerably greater than that of estradiol”.
For the compound `C[C@]12CC[C@H]3c4ccc(O)cc4CC[C@H]3[C@@H]1CC[C@@H]2O` [9β-estradiol], the “estrogenic (uterotropic) activity in vivo” value in experiment [8] is “inactive; also recorded: little uterotropic activity”.
Regarding `CC(=O)O[C@H]1C[C@]2(C)[C@@H](O)CC[C@H]2[C@@H]2CCc3cc(O)ccc3[C@H]21` [11β-acetoxyestradiol], the “estrogenic (uterotropic) activity in vivo” value in experiment [8] is “more active than estradiol”.
For `O=C1CCC(NC(=O)Cc2ccc(F)cc2)C(=O)N1` (stereo not drawn) [p-fluoro derivative], the “potency in tumor cell growth inhibition relative to A10” value in [9] was “lack of increased potency”.
Consider `CC/C(=C(\c1ccccc1)c1ccc(OCCN(C)C)cc1)c1ccccc1` [tamoxifen citrate], for which, in [10], the “number of MCF-7 cells” value was 187,759 cells.
For “p-hydroxy-3-phenylacetylamino-2,6-piperidinedione”, the “dose response comparison of growth inhibition” value in [11] (10^−5 to 10^−2 M) is given as “more active than the unsubstituted compound”. The growth inhibitory effect entry in [11] (rank among analogs) is “most active analog”; in experiment [13], “most active derivative”. Besides, the “binding for the estrogen receptor” value in experiment [3] is reported as “neither 3-phenylacetylamino-2,6-piperidinedione nor phydroxy-3-phenylacetylamino-2,6-piperidinedione exhibited appreciable binding”. Moreover, the “inhibition of estrogen stimulated cell growth” value in [4] was “inhibited”. The compound further yielded a 50% inhibitory concentration (IC50) in experiment [4] of 0.007 mM. The “growth inhibition over concentration range” value in experiment [12] (Nb2 lymphoma cells, 10^−4 M to 10^−3 M) is “more active in Nb2 lymphoma cells than 3-phenylacetylamino-2,6 piperidinedione”. For the same compound, in experiment [12] (rat Nb2 lymphoma cells), the “inhibition of prolactin stimulated growth” value is given as “greatest activity”. Further, the “potency in tumor cell growth inhibition relative to A10” value in [9] was “most potent compound”; in experiment [9] (listed as p-OH-A10) it was “as much as an order of magnitude more active than A10”.

The record behind these values is patent US20020064790A1, “Design of drugs involving receptor-ligand-DNA interactions” (priority 1993, published 2002).
